In article PMC6952414 (Nature Communications, 2020) one finds HA x ratio data, which are given here for 171 substances.

Where “and” joins values, the source holds several entries; their conditions need not be identical. Identical values can stand only once.

The test system of the assay is HA. It is filed as binding, IAV H1N1 strain A/Puerto Rico/8/1934 (PR8).

In the case of ARRVNHH, the HA x ratio was 0.61.

As to DRRVNHH, the HA x ratio was determined as 0.65.

With ERRVNHH, the HA x ratio is 0.60.

With FRRVNHH, the HA x ratio was determined as 0.71.

On to GRRVNHH, for which the HA x ratio is 0.37.

Take HRRVNHH: the HA x ratio came to 0.38.

With IRRVNHH, the HA x ratio is 0.41.

With KRRVNHH, the HA x ratio was found to be 0.87.

As to LRRVNHH, the HA x ratio is 0.80.

Take MRRVNHH: the HA x ratio amounted to 0.73.

In the case of NRRVNHH, the HA x ratio was found to be 0.43.

As to PRRVNHH, the HA x ratio stood at 0.56.

As to QRRVNHH, the HA x ratio amounted to 0.78.

For RARDNHH, the HA x ratio was 0.61 and 0.73 and 0.72.

In the case of RARVNHH, the HA x ratio is 1.61.

As for RDRVNHH, the HA x ratio turned out to be 0.80.

For the substance RERVNHH, the HA x ratio was 0.54.

Consider RFPVNHH, for which the HA x ratio is 1.20 and 1.08 and 1.00.

RFRVNHH: the HA x ratio was determined as 0.56.

RGPVNHH: the HA x ratio is 1.56 and 1.10 and 0.92.

On to RGRDNHH, for which the HA x ratio was 0.78 and 1.32 and 1.08.

On to RGRVNHH, for which the HA x ratio is listed as 1.41.

In the case of RHPVNHH, the HA x ratio is 0.90 and 1.23 and 0.70.

Take RHRDNHH: the HA x ratio was 1.05 and 1.04 and 0.77.

For the substance RHRVNHH, the HA x ratio was found to be 1.57.

With RIPVNHH, the HA x ratio is 1.46 and 1.18 and 0.86.

Regarding RIRVNHH, the HA x ratio is 1.38.

For RKPVNHH, the HA x ratio was 1.27 and 1.55 and 1.97.

As for RKRDNHH, the HA x ratio is 1.05 and 0.70.

With RKRVNHH, the HA x ratio is on record as 1.35.

For RLPVNHH, the HA x ratio was 0.45 and 0.68 and 0.79.

As for RLRVNHH, the HA x ratio is reported as 1.05.

Turning to RMRDNHH, the HA x ratio is 0.77 and 0.40 and 0.59.

Take RMRVNHH: the HA x ratio turned out to be 0.90.

On to RNPVNHH, for which the HA x ratio is 1.21 and 1.04 and 0.76.

With RNRVNHH, the HA x ratio came to 1.11.

As to RPPVNHH, the HA x ratio was 0.98 and 0.96 and 0.50.

For RPRVNHH, the HA x ratio was 0.60.

RQPVNHH: the HA x ratio is 0.63 and 0.91 and 1.08.

Regarding RQRDNHH, the HA x ratio is 1.02 and 1.69 and 1.17.

On to RQRVNGG, for which the HA x ratio is 0.75.

On to RRADNHH, for which the HA x ratio was 0.49 and 0.70 and 0.62.

With RRAVNHH, the HA x ratio is recorded as 0.96.

Regarding RRDVNHH, the HA x ratio came to 0.60.

With RREVNHH, the HA x ratio is 3.11.

Consider RRFDNHH, for which the HA x ratio was 0.56 and 0.46 and 0.45.

With RRFVNHH, the HA x ratio is 2.86.

Regarding RRGVNHH, the HA x ratio turned out to be 2.40.

On to RRHDNHH, for which the HA x ratio was 1.24 and 1.02 and 1.09.

Turning to RRHVNHH, the HA x ratio was found to be 1.09.

Take RRIVNHH: the HA x ratio came out at 1.20.

For the substance RRKVNHH, the HA x ratio is 0.82.

As to RRLVNHH, the HA x ratio is 0.69.

Regarding RRMDNHH, the HA x ratio is 0.63 and 1.00 and 0.79.

Regarding RRMVNHH, the HA x ratio came to 0.79.

In the case of RRNDNHH, the HA x ratio is 0.51 and 0.36 and 0.50.

As for RRNVNHH, the HA x ratio is given as 0.61.

Regarding RRPKNHH, the HA x ratio was 0.76 and 0.64 and 0.51.

RRPLNHH: the HA x ratio is 0.82 and 0.76 and 0.42.

In the case of RRPNNHH, the HA x ratio was 1.47 and 1.90 and 1.08.

For RRPRNHH, the HA x ratio is 0.65 and 0.78 and 0.39.

Take RRPVNHE: the HA x ratio is 1.47 and 1.30 and 1.11.

Consider RRPVNHF, for which the HA x ratio was 1.54 and 1.38 and 2.67.

For RRPVNHK, the HA x ratio is 1.14 and 0.99 and 0.62.

For the substance RRPVNHQ, the HA x ratio is 1.37 and 1.26 and 0.94.

For RRPVNHS, the HA x ratio was 1.08 and 1.99 and 1.46.

RRPVNHT: the HA x ratio is 0.76 and 1.24 and 0.77.

RRPVNHY: the HA x ratio was 1.43 and 0.76 and 0.77.

As to RRQVNHH, the HA x ratio was found to be 2.55.

Consider RRRANHH, for which the HA x ratio turned out to be 0.36.

As to RRRDNHA, the HA x ratio was 1.07 and 0.73 and 0.58.

For the substance RRRDNHD, the HA x ratio is 0.55 and 0.60 and 0.30.

Take RRRDNHL: the HA x ratio was 0.92 and 0.83 and 0.51.

Regarding RRRDNHP, the HA x ratio is 0.54 and 0.61 and 0.45.

In the case of RRRDNHQ, the HA x ratio was 0.36 and 0.45 and 0.67.

Consider RRRDNHV, for which the HA x ratio is 1.05 and 1.22 and 1.16.

Regarding RRRENHH, the HA x ratio came to 0.59.

For RRRFNHH, the HA x ratio was 0.78.

On to RRRGNHH, for which the HA x ratio was found to be 0.46.

Take RRRHNHH: the HA x ratio was found to be 0.30.

For the substance RRRINHH, the HA x ratio is given as 0.39.

Regarding RRRKNHH, the HA x ratio was found to be 1.55.

For the substance RRRLNHH, the HA x ratio is 0.42.

On to RRRMNHH, for which the HA x ratio was 2.13.

Regarding RRRNNHH, the HA x ratio is 2.20.

As for RRRPNHH, the HA x ratio was 0.36.

For the substance RRRQNHH, the HA x ratio is 1.81.

With RRRRNHH, the HA x ratio is 1.09.

With RRRSNHH, the HA x ratio came to 0.40.

With RRRTNHH, the HA x ratio turned out to be 0.28.

In the case of RRRVAHH, the HA x ratio worked out at 1.62.

Regarding RRRVDHH, the HA x ratio amounted to 1.09.

With RRRVEHH, the HA x ratio came out at 0.64.

In the case of RRRVFHH, the HA x ratio came to 0.71.

RRRVGHH: the HA x ratio is listed as 0.56.

Consider RRRVHHH, for which the HA x ratio was determined as 0.35.

For the substance RRRVIHH, the HA x ratio worked out at 0.63.

As for RRRVKHH, the HA x ratio is 1.27.

RRRVLHH: the HA x ratio stood at 1.21.

Regarding RRRVMHH, the HA x ratio was 0.90.

With RRRVNAH, the HA x ratio was found to be 0.91.

Turning to RRRVNDH, the HA x ratio is given as 0.72.

As for RRRVNEH, the HA x ratio was 0.49.

As for RRRVNFH, the HA x ratio is listed as 0.93.

As to RRRVNGH, the HA x ratio is recorded as 0.70.

Consider RRRVNHA, for which the HA x ratio stood at 0.56.

With RRRVNHD, the HA x ratio is recorded as 0.46.

Take RRRVNHE: the HA x ratio is given as 1.77.

For the substance RRRVNHF, the HA x ratio is on record as 0.66.

On to RRRVNHG, for which the HA x ratio was 1.43.

Turning to RRRVNHI, the HA x ratio is listed as 0.72.

For the substance RRRVNHK, the HA x ratio is on record as 0.59.

Take RRRVNHL: the HA x ratio came to 0.48.

As to RRRVNHM, the HA x ratio is 0.42.

As to RRRVNHN, the HA x ratio is 0.66.

RRRVNHP: the HA x ratio stood at 1.63.

For RRRVNHQ, the HA x ratio is reported as 0.72.

As for RRRVNHR, the HA x ratio was 1.48.

In the case of RRRVNHS, the HA x ratio came out at 1.03.

For RRRVNHT, the HA x ratio stood at 1.23.

RRRVNHV: the HA x ratio was 0.49.

For the substance RRRVNHW, the HA x ratio came to 0.44.

Take RRRVNHY: the HA x ratio came out at 0.36.

For RRRVNIH, the HA x ratio came to 0.95.

Consider RRRVNKH, for which the HA x ratio amounted to 1.27.

Regarding RRRVNLH, the HA x ratio amounted to 1.09.

On to RRRVNMH, for which the HA x ratio was determined as 1.22.

Consider RRRVNNH, for which the HA x ratio worked out at 1.00.

Turning to RRRVNPH, the HA x ratio stood at 0.89.

For the substance RRRVNQH, the HA x ratio came to 0.65.

Take RRRVNRH: the HA x ratio came out at 0.73.

Take RRRVNSH: the HA x ratio amounted to 0.86.

Turning to RRRVNTH, the HA x ratio came to 0.88.

As to RRRVNVH, the HA x ratio came to 0.80.

Turning to RRRVNWH, the HA x ratio is reported as 0.80.

In the case of RRRVNYH, the HA x ratio is on record as 1.55.

For RRRVPHH, the HA x ratio came out at 0.90.

Turning to RRRVQHH, the HA x ratio is listed as 0.71.

For RRRVRHH, the HA x ratio worked out at 1.24.

For RRRVSHH, the HA x ratio amounted to 0.61.

RRRVTHH: the HA x ratio is 0.46.

On to RRRVVHH, for which the HA x ratio is listed as 1.27.

As for RRRVWHH, the HA x ratio came out at 0.57.

Regarding RRRVYHH, the HA x ratio is reported as 1.10.

As to RRRWNHH, the HA x ratio was found to be 0.30.

Turning to RRRYNHH, the HA x ratio worked out at 0.39.

On to RRSFNHH, for which the HA x ratio is 0.82 and 0.91 and 0.46.

Consider RRSKNHH, for which the HA x ratio was 1.10 and 0.79 and 1.25.

Take RRSMNHH: the HA x ratio was 0.75 and 0.55.

For the substance RRSNNHH, the HA x ratio is 0.73 and 0.74 and 0.37.

As for RRSPNHH, the HA x ratio is 0.39 and 0.47 and 0.43.

Turning to RRSRNHH, the HA x ratio is 1.02 and 0.86 and 0.77.

On to RRTVNHH, for which the HA x ratio is on record as 1.15.

In the case of RRVVNHH, the HA x ratio is recorded as 0.57.

In the case of RRWVNHH, the HA x ratio is reported as 0.66.

Consider RRYDNHH, for which the HA x ratio is 1.25 and 0.92 and 1.56.

Regarding RRYVNHH, the HA x ratio amounted to 0.69.

Take RSPVNHH: the HA x ratio was 1.07 and 0.89 and 0.72.

Regarding RSRVNHH, the HA x ratio stood at 2.42.

In the case of RTRDNHH, the HA x ratio is 1.38 and 1.50.

For RTRVNHH, the HA x ratio worked out at 2.79.

As for RVPVNHH, the HA x ratio is 1.05 and 1.07 and 0.75.

RVRVNHH: the HA x ratio is 0.68.

As to RWRDNHH, the HA x ratio is 1.15 and 1.05 and 0.76.

As to RWRVNHH, the HA x ratio came to 1.99.

As for RYRVNHH, the HA x ratio stood at 1.46.

For SRRVNHH, the HA x ratio is listed as 0.49.

For TRRVNHH, the HA x ratio is 0.39.

For VRRVNHH, the HA x ratio was found to be 0.98.

Turning to WRRVNHH, the HA x ratio turned out to be 0.56.

Consider YRRVNHH, for which the HA x ratio turned out to be 1.34.
